In general, half-life refers to the time in which the quantity being followed falls by half.

Data set [1] relates to rats with experimental pancreatitis. Put plainly: Pancreatitis visceral pain model (DBTC), referred abdominal hypersensitivity, von Frey. In kind it is in vivo, rat. As to the method:
Adult male Sprague Dawley rats (Harlan, Indianapolis, Ind.), weighing 150-200 g were maintained in a climate-controlled room with ad lib food and water on a 12-h light/dark cycle (lights on at 07:00 hours). All procedures followed the policies of the International Association for the Study of Pain and the NIH guidelines for the handling and use of laboratory animals. Studies were approved by the University of Arizona IACUC.
Pancreatitis was produced by a tail vein injection of dibutyltin dichloride (DBTC, Aldrich, Milwaukee, Wis., 0.25 cc) dissolved in 100% ethanol at a dose of 8 mg/kg under isofluorane anesthesia (2-3 liters/min, 4.0%/vol until anesthetized, then 2.5%/vol throughout the procedure) (Vera-Portocarrero et al., 2006). Control animals were injected with the vehicle solution only (100% ethanol, 0.25 cc).
Referred abdominal hypersensitivity in the pancreatitis model was quantified by measuring the number of withdrawals events evoked by application of a calibrated von Frey filament (determined by either abdominal withdrawal, licking of the abdominal area, or whole body withdrawal). Rats were placed inside Plexiglas boxes on an elevated fine fiberglass screen mesh and acclimated for 30 minutes before testing. A 4 g von Frey filament was applied from underneath through the mesh floor, to the abdominal area at different points on the surface. […] The mean occurrence of withdrawal events in each trial is expressed as the number of responses to 10 applications as previously described (Vera-Portocarrero et al., 2003).
Significant differences between each experimental group for the behavioral test across time were detected by a two-factor ANOVA follow by the Fishers Least Significance Difference post-hoc test. One-factor ANOVA was used to detect significant differences in behavioral outcomes within each experimental group over time. A linear regression analysis was used to detect the dose-dependency of the effects. Significance was established at the p<0.05 level.

Data set [2] addresses T1, Nitric oxide synthase (neuronal, human recombinant) nNOS (Homo sapiens, UniProt P29475).
T1 construct: purchased Axxora LLC ALX-201-068
Nature of the data set: nNOS (human) enzyme assay, [3H]-L-arginine to L-citrulline. In kind it is biochemical. Particulars: for pIC50: Table 10, human nNOS, read-out: nNOSh; for e/n: Table 10, ratio eNOS/nNOS.
Method: nNOS (Human), eNOS (Human) Enzyme Assay
Human nNOS and eNOS Protocol:
Procedure for Human nNOS and eNOS
Primary stock solutions of test compounds at a concentration of 6 mM are prepared. The primary stock solutions of each test compound are prepared freshly in distilled water on the day of study. […] Concentration range of test compound utilized for nNOS are 0.001 to 300 μM and for eNOS are 0.003 to 1000 μM. The vehicle of the test compound or inhibitor is used as blank control.
All incubations are performed in duplicate:
Prepare the reaction mixture on ice by adding the following components with a micropipette to a polypropylene microcentrifuge tube:
Total reaction volume is 60 μL.
Mix using a vortex mixer and incubate the above reaction mixture at 37° C. in an incubator for 30 minutes.
Add 400 μL of ice-cold Stop Buffer at the end of the incubation period to stop the reaction. (The EDTA in the Stop Buffer chelates all of the available calcium.)
Mix using a vortex mixer and transfer the reaction samples to spin cups and centrifuge using a microcentrifuge, at 13,000 rpm for 30 sec. at room temperature.
Remove the spin cups from the holder and transfer 450 μL of eluate (containing the unbound L-citrulline) to scintillation vials. Add 3 mL of scintillation fluid and quantify the radioactivity in a liquid scintillation counter.
Calculation of IC50 Values:
Data is analyzed using a Sigmoidal dose-response (variable slope) curve to determine the IC50 value of the test compound. Y=Bottom+(Top−Bottom)/(1+10^((Log IC50−X)*Hill Slope))

Another data set has as its target 5-HT1D (Bos taurus, UniProt F1MMU1). Nature of the data set: 5-HT1D binding assay (agonist radioligand), bovine caudate membranes. Particulars: Table 11, bovine 1D receptor binding; read-out: 5HT1D. On the procedure: 5-HT1D binding assays (agonist radioligand) were performed using bovine caudate membranes according to the methods of Heuring and Peroutka (J. Neurosci., 7: 894-903 (1987)). 5-HT1B (rat cerebral cortex) binding assays (agonist radioligand) were performed according to the method of Hoyer et. al. (Eur. J. Pharmacol., 118: 1-12 (1995)). For the purpose of result analysis, the specific ligand binding to the receptors is defined as the difference between the total binding and the nonspecific binding as determined in the presence of an excess of unlabelled ligand. The results are expressed as a percent of control specific binding obtained in the presence of the test compounds.

Data set [3] is described as follows: Human liver microsome in vitro metabolic stability assay. In kind it is in vitro ADME. Particulars: for Peak Area Ratio 0 min / Peak Area Ratio 15 min / Peak Area Ratio 30 min / Peak Area Ratio 60 min: human liver microsomes. On the procedure: The compounds (10 μM) were incubated with pooled human liver microsomes in the presence and absence of the co-factor, β-Nicotinamide adenine dinucleotide phosphate (NADP^+), required for oxidative metabolism by the Cytochrome P-450 (CYP) and flavin containing monooxygenase (FMO) enzymes. A tandem liquid chromatography mass spectrometry (LC-MS/MS) method was developed and/or qualified for each compound for measuring relative stability of 6a, 6b, and 18 in the terminated reaction mixtures. The relative disappearance of the test compounds following 15, 30, and 60 min of incubation with liver microsomes, NADP^+, and an NADPH-regenerating system was determined in duplicate samples. 6a, 6b, and 18 stability following 0 and 60 min of incubation with liver microsomes in the absence of NADP^+ was also determined.
Samples for each test compound generated from the assay were analyzed as one batch by the qualified LC-MS/MS method. The sample batch consisted of the following: initial system check standards (three replicates), the assay samples (in duplicate) and the final system check standards (three replicates). A batch was considered acceptable if the system check injection acceptance criteria described above was met.
The study was conducted with cryopreserved human liver microsomes, pooled from 15 donors (mixed pool of male and female donors). Pooled donor microsomes were used in order to represent an “average” metabolic activity. The microsomes have been characterized by the supplier for Phase I (CYP1A2, CYP2A6, CYP2B6, CYP2C8, CYP2C9, CYP2C19, CYP2D6, CYP2E1, CYP3A4, CYP4A11 and FMO) and Phase II (UGT1A1, UGT1A4 and UGT1A9) enzymatic activity.
1. The assay was performed with 0.5 mg/mL human liver microsomes in 50 mM potassium phosphate buffer, pH 7.4 (PPB), and in the presence of an NADPH regenerating system (1.3 mM NADP^+, 3.3 mM glucose-6-phosphate, 0.4 U/mL glucose-6-phosphate dehydrogenase) and 3.3 mM MgCl2. All incubations were performed in duplicate. One concentration of test compound was tested (10 μM). 2. A stock solution of microsomes (20 mg/mL) was thawed in a 37° C. water bath on the day of the assay and then immediately placed on ice. The microsomes were then diluted with an appropriate volume of PPB, such that the final protein concentration in the assay was 0.5 mg/mL, and the final PPB concentration was 50 mM. 3. An appropriate aliquot of the 1 mM stock solution of the test compounds (in water) was added to the diluted microsomes, and then the mixture was warmed to 37° C. for 5 min in an incubator. […] These samples represent the time zero samples. 4. An aliquot (375 μL) of the pre-warmed liver microsomes and test compound mixture was dispensed into a well of a 24-well plate. A 125 μL aliquot of pre-warmed (37° C. for 5 min) 4-fold concentrated NADPH regenerating system solution was then added to start the reaction. Reaction mixtures (0.5 mL) were incubated in a shaking incubator (150 rpm) at 37° C. 5. One hundred μL of the reaction mixture was sampled following 15, 30, and 60 min of incubation. Each sample with test compound was immediately added to a chilled labeled centrifuge tube containing 100 μL of ice cold methanol to terminate the reaction. 6. All samples were mixed by vortex and then centrifuged (15,000×g for 10 min at 4° C.) to pellet the protein. An aliquot of the supernatant from each sample was then transferred to a clean, labeled centrifuge tube and stored at −70° C. until bioanalysis. 7. […] 8. As a control, test compound was incubated with microsomes in the absence of NADP^+. One hundred μL of the reaction mixture was sampled for control samples following 0 and 60 min of incubation as detailed above. 9. Data sheets with the date of the experiment, the Study No., the compound IDs, the sampling times, a plate map and any deviations to the protocol were recorded.
The mean of the test compound to the internal standard peak area ratios were calculated for the zero time sample.
(Microsomes from liver hold many membrane-bound enzymes, among them those of drug oxidation.)

pIC50: −log10 of the molar value.

T1 sequence (P29475 whole entry): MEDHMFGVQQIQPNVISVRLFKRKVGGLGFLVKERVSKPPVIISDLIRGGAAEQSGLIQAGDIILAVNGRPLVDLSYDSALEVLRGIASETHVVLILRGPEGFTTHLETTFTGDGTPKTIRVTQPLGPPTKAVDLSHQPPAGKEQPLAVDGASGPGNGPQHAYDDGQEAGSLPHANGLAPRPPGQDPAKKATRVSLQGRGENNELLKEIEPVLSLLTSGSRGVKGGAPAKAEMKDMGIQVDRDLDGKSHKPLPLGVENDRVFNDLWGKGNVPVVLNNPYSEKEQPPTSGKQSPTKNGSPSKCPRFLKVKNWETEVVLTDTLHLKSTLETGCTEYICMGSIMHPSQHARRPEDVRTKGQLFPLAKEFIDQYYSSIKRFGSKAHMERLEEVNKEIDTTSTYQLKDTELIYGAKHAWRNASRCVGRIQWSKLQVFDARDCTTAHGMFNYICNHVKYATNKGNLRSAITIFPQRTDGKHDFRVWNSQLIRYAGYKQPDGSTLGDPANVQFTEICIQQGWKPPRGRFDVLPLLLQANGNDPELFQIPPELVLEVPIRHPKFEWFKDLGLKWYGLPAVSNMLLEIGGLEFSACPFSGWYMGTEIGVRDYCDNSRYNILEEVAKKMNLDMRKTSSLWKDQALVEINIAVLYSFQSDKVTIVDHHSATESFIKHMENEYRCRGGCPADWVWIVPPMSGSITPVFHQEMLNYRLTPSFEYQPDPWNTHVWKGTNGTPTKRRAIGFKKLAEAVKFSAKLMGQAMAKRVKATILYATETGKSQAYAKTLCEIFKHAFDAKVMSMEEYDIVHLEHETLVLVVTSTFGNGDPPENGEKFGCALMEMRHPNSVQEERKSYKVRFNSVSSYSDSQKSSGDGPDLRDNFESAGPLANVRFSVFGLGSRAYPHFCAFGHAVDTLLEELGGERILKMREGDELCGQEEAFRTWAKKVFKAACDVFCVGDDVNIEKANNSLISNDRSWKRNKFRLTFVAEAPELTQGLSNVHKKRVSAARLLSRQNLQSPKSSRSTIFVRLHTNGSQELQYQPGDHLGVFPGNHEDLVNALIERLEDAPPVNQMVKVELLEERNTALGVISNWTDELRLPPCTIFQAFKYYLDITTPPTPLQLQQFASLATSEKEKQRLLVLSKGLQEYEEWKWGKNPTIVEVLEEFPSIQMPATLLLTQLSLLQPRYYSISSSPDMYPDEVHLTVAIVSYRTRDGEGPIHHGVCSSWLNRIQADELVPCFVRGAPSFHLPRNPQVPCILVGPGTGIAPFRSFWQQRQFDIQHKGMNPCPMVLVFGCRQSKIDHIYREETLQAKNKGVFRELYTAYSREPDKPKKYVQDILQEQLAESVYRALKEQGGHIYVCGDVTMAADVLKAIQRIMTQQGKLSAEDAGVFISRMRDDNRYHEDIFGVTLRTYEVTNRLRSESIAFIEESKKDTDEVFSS
5-HT1D, sequence (F1MMU1 1-377): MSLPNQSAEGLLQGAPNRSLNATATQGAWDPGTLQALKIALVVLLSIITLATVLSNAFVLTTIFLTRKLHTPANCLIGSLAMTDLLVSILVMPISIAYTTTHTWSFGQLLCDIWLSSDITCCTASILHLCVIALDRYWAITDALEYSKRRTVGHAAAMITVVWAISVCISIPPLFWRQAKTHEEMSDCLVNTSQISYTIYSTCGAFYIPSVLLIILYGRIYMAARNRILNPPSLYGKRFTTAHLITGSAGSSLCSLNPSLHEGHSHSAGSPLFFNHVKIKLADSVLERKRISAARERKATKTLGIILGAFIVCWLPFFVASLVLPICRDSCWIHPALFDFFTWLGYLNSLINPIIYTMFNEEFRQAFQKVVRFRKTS

With `CN1CCC(c2c[nH]c3ccc(NC(=N)c4cccs4)cc23)C1` (single isomer, unassigned) [Compound 6a, N-(3-(1-Methylpyrrolidin-3-yl)-1H-indol-5-yl)thiophene-2-carboximidamide], the “reversal of tactile allodynia in pancreatitis visceral pain model” value in data set [1] was “does not reverse tactile allodynia”. For the same molecule, in data set [2], the pIC50 was 6.17 and the e/n came to 67. Besides, the pIC50 at 5-HT1D is 6.77. In data set [3] (+NADP+, 10 μM), the “Peak Area Ratio 0 min” value turned out to be 25.8, the “Peak Area Ratio 15 min” value is 25.8, the “Peak Area Ratio 30 min” value is recorded as 23.7 and the “Peak Area Ratio 60 min” value is reported as 19.4. Further, the half-life at 10 μM in data set [3] (both sexes, pooled human liver microsomes, pH 7.4, human liver microsomes, with NADPH regenerating system, read-out: estimated half-life for disappearance from the microsomal reaction mixture) is 2.2 h. Further, in data set [3] (−NADP+, 10 μM), the “Peak Area Ratio 0 min” value amounted to 22.0 and the “Peak Area Ratio 60 min” value was 20.2.
Take `CN1CCC(c2c[nH]c3ccc(NC(=N)c4cccs4)cc23)C1` (single isomer, unassigned) [Compound 6b, N-(3-(1-Methylpyrrolidin-3-yl)-1H-indol-5-yl)thiophene-2-carboximidamide]: the “reversal of tactile allodynia in pancreatitis visceral pain model” value in data set [1] was “reverse the tactile allodynia”. In addition, in data set [2], the pIC50 was 6.69 and the e/n worked out at 100. In addition, at 5-HT1D, the pIC50 is 7.10. The “metabolic stability in human liver microsomes” value in data set [3] (60 min incubation, 10 μM) was “metabolically stable over 60 min of incubation”. For the same molecule, in data set [3] (+NADP+, 10 μM), the “Peak Area Ratio 0 min” value is 20.6, the “Peak Area Ratio 15 min” value worked out at 20.5, the “Peak Area Ratio 30 min” value amounted to 21.4 and the “Peak Area Ratio 60 min” value is on record as 20.5. Besides, in data set [3] (−NADP+, 10 μM), the “Peak Area Ratio 0 min” value was found to be 20.2 and the “Peak Area Ratio 60 min” value worked out at 20.6.

(Values after patent publication US8673909B2, “Indole compounds and methods for treating visceral pain” (NeurAxon, Inc., priority 2007, dated 2014).)
